In US20250381110A1, “SKIN CARE COMPOSITION AND METHOD OF USING THE SAME” (THE PROCTER & GAMBLE COMPANY, priority 2024, published 2025):
Where a name gives a salt, the structure may show the parent alone.

System: p62-dependent mitophagy
Test: Luciferase-p62 assay (Fluc-p62 clearance) in mouse embryonic fibroblasts
Assay type: cell-based
Conditions: for Mean Luminescence: Luciferase-p62 assay, mouse embryonic fibroblasts (MEFs), compounds at 10 μM; for % Activity over baseline: percentage of Luciferase-p62 clearance relative to baseline (mean luminescence in the absence of doxycycline induction); for % Activity over baseline / % Activity relative to Rapamycin: MEFs, 10 μM; for % Activity relative to Rapamycin: percentage of activity relative to rapamycin tested in the same experiment at the same concentration
How it was run: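 MEFs with doxycycline-inducible Fluc-p62; after induction, doxycycline removed and cells treated 48 h with compounds at 10 μM. Fluc-p62 clearance, taken as mitophagy, read by ONE-Glo+Tox luciferase with viability. Vehicle (DMSO) as negative control; activity also expressed relative to rapamycin.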

SMILES	Mean Luminescence	% Activity over baseline	% Activity relative to Rapamycin
O=C1c2cccc3c2[C@H](CCC3)CN1[C@@H]1CN2CCC1CC2 [Palonosetron HCl]	915.97	43.39%	78.18%
O=C(CCc1ccc(O)cc1)c1c(O)cc(O)cc1O [Phloretin]	912.42	43.61%	78.58%
CCc1ccc(CCOc2ccc(CC3SC(=O)NC3=O)cc2)nc1 (stereo not drawn) [Pioglitazone]	847.16	47.65%	85.84%
COc1cccc2c1C(=O)c1c(O)c3c(c(O)c1C2=O)C[C@@](O)(C(=O)CO)C[C@@H]3O[C@H]1C[C@H](N)[C@H](O[C@@H]2CCCCO2)[C@H](C)O1 [Pirarubicin]	978.32	39.54%	71.24%
CC(=O)[C@H]1CC[C@H]2[C@@H]3CC=C4C[C@@H](O)CC[C@]4(C)[C@H]3CC[C@]12C [Pregnenolone]	870.09	46.23%	83.29%
CCCNC(C)C(=O)Nc1ccccc1C (stereo not drawn) [Prilocaine]	905.23	44.06%	79.38%
C[C@H](CC[C@@]1(O)O[C@H]2C[C@H]3[C@@H]4CC=C5C[C@@H](O[C@@H]6O[C@H](CO)[C@@H](O[C@@H]7O[C@@H](C)[C@H](O)[C@@H](O)[C@H]7O)[C@H](O)[C@H]6O[C@@H]6O[C@@H](C)[C@H](O)[C@@H](O)[C@H]6O)CC[C@]5(C)[C@H]4CC[C@]3(C)[C@H]2[C@@H]1C)CO[C@@H]1O[C@H](CO)[C@@H](O)[C@H](O)[C@H]1O [Protodioscin]	713.58	55.90%	100.72%
Oc1ccccc1O [Pyrocatechol]	906.35	43.99%	79.25%
Oc1cccc(O)c1O [Pyrogallol]	936.38	42.13%	75.91%
CC(=O)CCc1ccc(O)cc1 [Raspberry ketone]	696.39	56.96%	102.63%
COC(=O)[C@H]1[C@H]2C[C@@H]3c4[nH]c5cc(OC)ccc5c4CCN3C[C@H]2C[C@@H](OC(=O)c2cc(OC)c(OC)c(OC)c2)[C@@H]1OC [Reserpine hydrochloride]	810.13	49.93%	89.97%
COC(=O)[C@H]1[C@H]2C[C@@H]3c4[nH]c5cc(OC)ccc5c4CCN3C[C@H]2C[C@@H](OC(=O)c2cc(OC)c(OC)c(OC)c2)[C@@H]1OC [Reserpine]	915.14	43.44%	78.27%
CC[C@H]1CN2CC[C@]3(C(=O)Nc4ccccc43)[C@@H]2C[C@@H]1/C(=C\OC)C(=O)OC [Rhynchophylline]	953.80	41.05%	73.97%
O[C@@H]1[C@@H](O)[C@H](OC/C=C/c2ccccc2)O[C@H](CO[C@@H]2OC[C@H](O)[C@H](O)[C@H]2O)[C@H]1O [Rosavin]	983.74	39.20%	70.64%
C[C@H]1O[C@@H](O[C@H]2CC[C@@]3(C)[C@@H](CC[C@]4(C)[C@@H]3C=C[C@]35OC[C@@]6(CCC(C)(C)C[C@H]63)[C@@H](O)C[C@]54C)[C@]2(C)CO)[C@H](O)[C@@H](O[C@@H]2O[C@H](CO)[C@@H](O)[C@H](O)[C@H]2O)[C@H]1O [Saikosaponin A]	561.50	65.30%	117.65%
CC[C@@H](C(=O)[C@@H](C)[C@@H](O)[C@H](C)[C@@H]1O[C@@H]([C@@H](CC)C(=O)O)CC[C@@H]1C)[C@H]1O[C@]2(C=C[C@@H](O)[C@]3(CC[C@@](C)([C@H]4CC[C@](O)(CC)[C@H](C)O4)O3)O2)[C@H](C)C[C@@H]1C [Salinomycin]	792.70	51.01%	91.91%
CCOC(=O)NCCCC(=O)NCCc1ccccc1 [Santacruzamate A (CAY10683)]	972.04	39.93%	71.94%
CN1[C@@H]2C[C@@H](OC(=O)[C@H](CO)c3ccccc3)C[C@H]1[C@@H]1O[C@@H]12 [Scopolamine hydrobromide]	937.62	42.05%	75.77%
CC(C)=CCOc1ccc(/C=C/C(=O)c2ccc(OCC=C(C)C)cc2OCC(=O)O)cc1 [Sofalcone]	760.95	52.97%	95.44%
CNC(=O)c1cc(Oc2ccc(NC(=O)Nc3ccc(Cl)c(C(F)(F)F)c3)cc2)ccn1 [Sorafenib]	932.25	42.39%	76.37%
CN[C@@H]1[C@H](O)[C@H](NC)[C@H]2O[C@@]3(O)C(=O)C[C@@H](C)O[C@H]3O[C@@H]2[C@H]1O [Spectinomycin dihydrochloride]	953.21	41.09%	74.04%
NCCCNCCCCNCCCN [Spermine]	720.40	55.48%	99.96%
COc1cc(NS(=O)(=O)c2ccc(N)cc2)nc(OC)n1 [Sulfadimethoxine]	821.82	49.21%	88.67%
COc1cc(C=O)cc(OC)c1O [Syringaldehyde]	896.55	44.59%	80.34%
C=CC[C@@H]1/C=C(\C)C[C@H](C)C[C@H](OC)[C@H]2O[C@@](O)(C(=O)C(=O)N3CCCC[C@H]3C(=O)O[C@H](/C(C)=C/[C@@H]3CC[C@@H](O)[C@H](OC)C3)[C@H](C)[C@@H](O)CC1=O)[C@H](C)C[C@@H]2OC [Tacrolimus (FK506)]	512.17	68.35%	123.15%
C/C=C(\C)C(=O)O [Tiglic acid]	947.74	41.43%	74.64%
Clc1ccc(C(Cn2ccnc2)OCc2ccsc2Cl)c(Cl)c1 (stereo not drawn) [Tioconazole]	537.96	66.75%	120.27%
NC[C@H]1O[C@H](O[C@H]2[C@H](O)[C@@H](O[C@H]3O[C@H](CO)[C@@H](O)[C@H](N)[C@H]3O)[C@H](N)C[C@@H]2N)[C@H](N)C[C@@H]1O [Tobramycin]	971.48	39.96%	72.00%
CC1=C(/C=C/C(C)=C/C=C/C(C)=C/C(=O)O)C(C)(C)CCC1 [Tretinoin (Aberela)]	773.39	52.20%	94.06%
CN1[C@@H]2CC[C@H]1CC(=O)C2 [Tropinone]	896.55	44.59%	80.34%
